# Laboratory results taken from patent US6482856B1, “Method and composition for treating mammalian disease caused by inflammatory response” (Cellular Sciences, Inc., priority 1995, dated 2002).
# Where two headings read alike, the source gives them in different places.
# Legend:
# sodium sulfide = conditions: in vivo; cited from earlier work
# gastric mucosa [1] = conditions: guinea pigs; caused by acetylsalicylic acid; cited from earlier work
# cyanide intoxication = conditions: in vivo; cited from earlier work
# [2] = test system: acrylamide neuropathy of axons; conditions: in vivo; cited from earlier work
# urinary calculi (stones) = conditions: rats fed calcium-oxalate lithogenic diet, versus control rats; cited from earlier work
# [3] = test system: bacterial and yeast systems; conditions: cited from earlier work
# L1210 leukemia = conditions: advanced L1210 leukemia; cited from earlier work
# [4] = test system: emphysema and restrictive airway disease; assay: Inhalation of nebulized sodium pyruvate solution by a patient; lung capacity and lung function tests; type: in vivo, human
# Description: Subject: A person suffering from emphysema and restrictive airway disease was treated as described below for three (3) months.
# Treatment: The treatment was conducted as follows: Five (5) milliliters of five (5) millimolar sodium pyruvate solution is filter sterilized through a 0.2 micron filter. The sterile pyruvate solution is placed into a “Pulmo Aid” nebulizer manufactured by DeVilbiss Co., Somerset, Pa. 15501-0635. The sterile pyruvate solution is nebulized by the Pulmo Aid device fitted with a disposable nebulizer and inhaled by the patient. The patient inhales normally from the Pulmo Aid nebulizer until all of the solution has been nebulized and inhaled. This inhalation step typically takes about ten (10) to twenty (20) minutes.
# The patient is treated with this inhalation therapy periodically. Initially, treatments are about four (4) times a day at about six (6) hour intervals. Treatments were reduced to three (3) times a day at about eight (8) hour intervals after 30 days of therapy. Treatments were further reduced to once a day 60 DAYS AFTER ONSET OF TREATMENT. After ninety (90) days treatments are three to five times a week.
# gastric mucosa [5] = conditions: rats; caused by acetylsalicylic acid; cited from earlier work
# [6] = twenty to thirty minutes after initial treatment
smiles,measurement,setting,value
CC(=O)C(=O)[O-].[Na+] [sodium pyruvate],effect on lethal effects of sodium sulfide,sodium sulfide,protect
same,"number of erosions, ulcers, and hemorrhages on the gastric mucosa",gastric mucosa [1],reduce
same,effect on cyanide intoxication,cyanide intoxication,antagonist
same,"onset and development of functional, morphological, and biochemical measures of acrylamide neuropathy",[2],retard
same,urinary calculi (stones),urinary calculi (stones),fewer
same,growth,[3],enhance
same,hydrogen peroxide production,[3],inhibit
same,toxicity of reactive oxygen intermediates,[3],protect
same,abnormally deformed red blood cells,L1210 leukemia,restore abnormally deformed red blood cells to normal
same,MVV (maximum ventilatory volume),"[4]; After Two Months Treatment, Before: 19",25
same,DCO (diffusion of carbon monoxide),"[4]; After Two Months Treatment, Before: 27",39 MI/min/mm Hg
same,DSB (diffusion single breath),"[4]; After Two Months Treatment, Before: 42",52
same,ERV (expiratory reserve volume),"[4]; After Two Months Treatment, Before: 62",110
same,IC (inspiratory capacity),"[4]; After Two Months Treatment, Before: 64",69
same,O SAT (oxygen saturation),"[4]; After Two Months Treatment, Before: 91",95
same,SVC (slow vital capacity),"[4]; After Two Months Treatment, inhaled 5 ml of 5 millimolar solution, Before: 63",83
same,overall condition of the subject,[4]; after three (3) months treatment,marked improvement
same,Improved lung function,[4]; conclusion of the treatment,20%
same,"Increased exercise tolerance, tested and certified",[4]; conclusion of the treatment,close to that of a person without emphysema and restrictive airway disease
same,Mental attitude,[4]; conclusion of the treatment,greatly improved
same,Reactive airway disease,[4]; conclusion of the treatment,reduced to the point that routine use of inhalers is not needed
same,recurrence of decreased pulmonary functions,[4]; conclusion of the treatment,No recurrence
same,exercise tolerance,[4]; [6],increase
same,tidal volume,[4]; [6],increases
same,wheezing,[4]; [6],stops
same,Use of oxygen,[4]; when treatment started,eliminated immediately
same,overall results,[4]; within two (2) weeks,dramatic results
same,"number of erosions, ulcers, and hemorrhages on the gastric mucosa",gastric mucosa [5],reduce
